Experimental data as given in PubChem BioAssay AID2060487 (Molecular Pharmacology Branch, DTP, NCI, 2025).

System: 997537-175-T-J1-PDC complex spheroid viability
Assay: Anticancer human tumor 997537-175-T-J1-PDC patient-derived colon adenocarcinoma cell line growth inhibition [GQUAD]
Settings: for IC50: curve of first compound; for viability, T/C: stronger effect = lower value
Outline: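 Multi-cell-type spheroids of tumor cells with HUVEC and mesenchymal stem cells, treated with drug combinations. Concentrations descend in half-log steps from near clinical Cmax, or from 10 microM where Cmax is unknown; viability read-out.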

[1] = second compound 0.0316 µM, first compound 0.0316 µM
[2] = second compound 0.0316 µM, first compound 0.316 µM
[3] = second compound 0.1 µM, first compound 0.0316 µM
[4] = second compound 0.1 µM, first compound 0.316 µM
[5] = second compound 0.316 µM, first compound 0.0316 µM
[6] = second compound 0.316 µM, first compound 0.316 µM
[7] = second compound 1 µM, first compound 0.0316 µM
[8] = second compound 1 µM, first compound 0.316 µM
[9] = second compound 3.16 µM, first compound 0.0316 µM
[10] = second compound 3.16 µM, first compound 0.316 µM
[11] = second compound 10 µM, first compound 0.0316 µM
[12] = second compound 10 µM, first compound 0.316 µM
[13] = second compound 0.0316 µM, first compound 0.1 µM
[14] = second compound 0.0316 µM, first compound 1 µM
[15] = second compound 0.0316 µM, first compound 3.16 µM
[16] = second compound 0.0316 µM, first compound 10 µM
[17] = second compound 0.1 µM, first compound 0.1 µM
[18] = second compound 0.1 µM, first compound 1 µM
[19] = second compound 0.1 µM, first compound 3.16 µM
[20] = second compound 0.1 µM, first compound 10 µM
[21] = second compound 0.316 µM, first compound 0.1 µM
[22] = second compound 0.316 µM, first compound 1 µM
[23] = second compound 0.316 µM, first compound 3.16 µM
[24] = second compound 0.316 µM, first compound 10 µM
[25] = second compound 1 µM, first compound 0.1 µM
[26] = second compound 1 µM, first compound 1 µM
[27] = second compound 1 µM, first compound 3.16 µM
[28] = second compound 1 µM, first compound 10 µM
[29] = second compound 3.16 µM, first compound 0.1 µM
[30] = second compound 3.16 µM, first compound 1 µM
[31] = second compound 3.16 µM, first compound 3.16 µM
[32] = second compound 3.16 µM, first compound 10 µM
[33] = second compound 10 µM, first compound 0.1 µM
[34] = second compound 10 µM, first compound 1 µM
[35] = second compound 10 µM, first compound 3.16 µM
[36] = second compound 10 µM, first compound 10 µM
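Further: spheroids exposed to the agents for 7 days.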
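Wherever viability, T/C is given: 100% = DMSO vehicle control viability.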

Compound: Cn1ncnc1[C@H]1c2n[nH]c(=O)c3cc(F)cc(c23)N[C@@H]1c1ccc(F)cc1 + CN(C)c1ccc(Nc2c3ccc(NC(=O)CCN4CCCC4)cc3nc3cc(NC(=O)CCN4CCCC4)ccc23)cc1
- IC50 (second compound 0.0316 µM): > 316 nM
- IC50 (second compound 0.1 µM): > 316 nM
- IC50 (second compound 0.316 µM): > 316 nM
- IC50 (second compound 1 µM): > 316 nM
- IC50 (second compound 3.16 µM): > 316 nM
- IC50 (second compound 10 µM): > 316 nM
- viability, T/C (second compound 0.0316 µM, first compound 0.000999 µM): 103%
- viability, T/C (second compound 0.0316 µM, first compound 0.00316 µM): 88.8%
- viability, T/C (second compound 0.0316 µM, first compound 0.00999 µM): 106%
- viability, T/C [1]: 66.6%
- viability, T/C (second compound 0.0316 µM, first compound 0.0999 µM): 81.1%
- viability, T/C [2]: 68.1%
- viability, T/C (second compound 0.1 µM, first compound 0.000999 µM): 100%
- viability, T/C (second compound 0.1 µM, first compound 0.00316 µM): 97%
- viability, T/C (second compound 0.1 µM, first compound 0.00999 µM): 91.9%
- viability, T/C [3]: 63%
- viability, T/C (second compound 0.1 µM, first compound 0.0999 µM): 102%
- viability, T/C [4]: 82.1%
- viability, T/C (second compound 0.316 µM, first compound 0.000999 µM): 94.8%
- viability, T/C (second compound 0.316 µM, first compound 0.00316 µM): 102%
- viability, T/C (second compound 0.316 µM, first compound 0.00999 µM): 95.2%
- viability, T/C [5]: 91.2%
- viability, T/C (second compound 0.316 µM, first compound 0.0999 µM): 79.7%
- viability, T/C [6]: 86.8%
- viability, T/C (second compound 1 µM, first compound 0.000999 µM): 84.7%
- viability, T/C (second compound 1 µM, first compound 0.00316 µM): 70.5%
- viability, T/C (second compound 1 µM, first compound 0.00999 µM): 79.2%
- viability, T/C [7]: 86.5%
- viability, T/C (second compound 1 µM, first compound 0.0999 µM): 98.5%
- viability, T/C [8]: 79.6%
- viability, T/C (second compound 3.16 µM, first compound 0.000999 µM): 69.4%
- viability, T/C (second compound 3.16 µM, first compound 0.00316 µM): 83.6%
- viability, T/C (second compound 3.16 µM, first compound 0.00999 µM): 94.6%
- viability, T/C [9]: 91.3%
- viability, T/C (second compound 3.16 µM, first compound 0.0999 µM): 94.8%
- viability, T/C [10]: 85.9%
- viability, T/C (second compound 10 µM, first compound 0.000999 µM): 77.1%
- viability, T/C (second compound 10 µM, first compound 0.00316 µM): 87.5%
- viability, T/C (second compound 10 µM, first compound 0.00999 µM): 91.2%
- viability, T/C [11]: 78.6%
- viability, T/C (second compound 10 µM, first compound 0.0999 µM): 109%
- viability, T/C [12]: 104%

Compound: CC1COCCN1c1cc(-c2ccnn2C)c2ccnc(-c3ccn[nH]3)c2n1 (stereo not drawn) + Cc1[nH]c2ccc(F)cc2c1-c1nc2c3cccnc3c3ncccc3c2[nH]1
- IC50 (second compound 0.0316 µM): 209 nM
- IC50 (second compound 0.1 µM): 287 nM
- IC50 (second compound 0.316 µM): 288 nM
- IC50 (second compound 1 µM): 376 nM
- IC50 (second compound 3.16 µM): 179 nM
- IC50 (second compound 10 µM): 113 nM
- viability, T/C [1]: 82.8%
- viability, T/C [13]: 66.7%
- viability, T/C [2]: 36.5%
- viability, T/C [14]: 28.3%
- viability, T/C [15]: 35%
- viability, T/C [16]: 62.5%
- viability, T/C [3]: 86.1%
- viability, T/C [17]: 64.5%
- viability, T/C [4]: 57.3%
- viability, T/C [18]: 24.7%
- viability, T/C [19]: 37.3%
- viability, T/C [20]: 46.5%
- viability, T/C [5]: 76.7%
- viability, T/C [21]: 58.5%
- viability, T/C [6]: 57.4%
- viability, T/C [22]: 32.5%
- viability, T/C [23]: 36.4%
- viability, T/C [24]: 46.4%
- viability, T/C [7]: 60.4%
- viability, T/C [25]: 56.1%
- viability, T/C [8]: 51.6%
- viability, T/C [26]: 21.6%
- viability, T/C [27]: 42.6%
- viability, T/C [28]: 57.9%
- viability, T/C [9]: 54.8%
- viability, T/C [29]: 70.2%
- viability, T/C [10]: 29.2%
- viability, T/C [30]: 40.8%
- viability, T/C [31]: 33.8%
- viability, T/C [32]: 47%
- viability, T/C [11]: 65.8%
- viability, T/C [33]: 55.3%
- viability, T/C [12]: 36.4%
- viability, T/C [34]: 42.5%
- viability, T/C [35]: 52.3%
- viability, T/C [36]: 47.9%

Compound: O=C(c1cc(Cc2n[nH]c(=O)c3ccccc23)ccc1F)N1CCN(C(=O)C2CC2)CC1 + Cc1[nH]c2ccc(F)cc2c1-c1nc2c3cccnc3c3ncccc3c2[nH]1
- IC50 (second compound 0.0316 µM): > 10000 nM
- IC50 (second compound 0.1 µM): > 10000 nM
- IC50 (second compound 0.316 µM): > 10000 nM
- IC50 (second compound 1 µM): > 10000 nM
- IC50 (second compound 3.16 µM): > 10000 nM
- IC50 (second compound 10 µM): > 10000 nM
- viability, T/C [1]: 99.8%
- viability, T/C [13]: 96.1%
- viability, T/C [2]: 93.2%
- viability, T/C [14]: 81.6%
- viability, T/C [15]: 79%
- viability, T/C [16]: 102%
- viability, T/C [3]: 91.8%
- viability, T/C [17]: 95.7%
- viability, T/C [4]: 77.1%
- viability, T/C [18]: 67.8%
- viability, T/C [19]: 89.5%
- viability, T/C [20]: 94.1%
- viability, T/C [5]: 76.1%
- viability, T/C [21]: 103%
- viability, T/C [6]: 90%
- viability, T/C [22]: 88.5%
- viability, T/C [23]: 98.4%
- viability, T/C [24]: 94.6%
- viability, T/C [7]: 76.9%
- viability, T/C [25]: 96.7%
- viability, T/C [8]: 73.6%
- viability, T/C [26]: 101%
- viability, T/C [27]: 106%
- viability, T/C [28]: 109%
- viability, T/C [9]: 90.7%
- viability, T/C [29]: 89.9%
- viability, T/C [10]: 100%
- viability, T/C [30]: 81.4%
- viability, T/C [31]: 94.4%
- viability, T/C [32]: 94.4%
- viability, T/C [11]: 71.9%
- viability, T/C [33]: 84.1%
- viability, T/C [12]: 96.7%
- viability, T/C [34]: 60.5%
- viability, T/C [35]: 79.8%
- viability, T/C [36]: 83.6%

Compound: COc1ccc([C@@H](O)c2cc(-c3ncnc4cc(N5CCOCC5)ccc34)c(F)cc2Cl)nn1 + CN(C)c1ccc(Nc2c3ccc(NC(=O)CCN4CCCC4)cc3nc3cc(NC(=O)CCN4CCCC4)ccc23)cc1
- IC50 (second compound 0.0316 µM): > 10000 nM
- IC50 (second compound 0.1 µM): > 10000 nM
- IC50 (second compound 0.316 µM): > 10000 nM
- IC50 (second compound 1 µM): > 10000 nM
- IC50 (second compound 3.16 µM): > 10000 nM
- IC50 (second compound 10 µM): > 10000 nM
- viability, T/C [1]: 90.2%
- viability, T/C [13]: 77.6%
- viability, T/C [2]: 102%
- viability, T/C [14]: 75%
- viability, T/C [15]: 72.4%
- viability, T/C [16]: 90%
- viability, T/C [3]: 97%
- viability, T/C [17]: 90.7%
- viability, T/C [4]: 78.9%
- viability, T/C [18]: 68.4%
- viability, T/C [19]: 78%
- viability, T/C [20]: 96.9%
- viability, T/C [5]: 85.9%
- viability, T/C [21]: 65.8%
- viability, T/C [6]: 90.1%
- viability, T/C [22]: 60.3%
- viability, T/C [23]: 81.9%
- viability, T/C [24]: 84.9%
- viability, T/C [7]: 77.8%
- viability, T/C [25]: 82.5%
- viability, T/C [8]: 86.6%
- viability, T/C [26]: 67.1%
- viability, T/C [27]: 100%
- viability, T/C [28]: 95.2%
- viability, T/C [9]: 84%
- viability, T/C [29]: 64.4%
- viability, T/C [10]: 93.8%
- viability, T/C [30]: 86.1%
- viability, T/C [31]: 108%
- viability, T/C [32]: 76.3%
- viability, T/C [11]: 82.9%
- viability, T/C [33]: 86.2%
- viability, T/C [12]: 93%
- viability, T/C [34]: 84.7%
- viability, T/C [35]: 95.2%
- viability, T/C [36]: 74.1%
